Reference: patent US5641781A, “Topical ophthalmic composition comprising a 2-[4-(azolylbutyl)piperazinylmethyl]benzimidazole derivative, in particular for the treatment of allergic conjunctivitis” (Laboratorios Del Dr. Esteve, S.A., priority 1995, dated 1997)

Tested on: guinea pig conjunctiva
Assay: Microvascular permeability in guinea pig conjunctiva induced by histamine (extravasation of Evans blue dye), topical ocular administration
Assay type: in vivo, guinea pig (male VAF Dunkin/Hartley)
Conditions: for % change (degree of permeability): topical, vs vehicle; for ED50 (concentration producing 50% inhibition of vascular permeability): Table 3
Protocol: The ocular antihistaminic topical effect of the products which form the subject of the present invention was evaluated by means of a model of microvascular permeability in guinea pig conjunctiva, induced by histamine. In this animal model of ocular antiallergic activity, the power, the fifty percent effective dose and the duration of action are measured.
Microvascular Permeability in Guinea Pig Conjunctiva Induced by Histamine (Extravasation of Evans Blue Dye)
Male VAF Dunkin/Hartley guinea pigs (6 per group) are injected intravenously, into the marginal vein of the ear, with 1.0 ml of Evans blue (1.0 mg/ml). Approximately 15 minutes after injection of the dye, 20 μl of the appropriate concentration of the compound of Example 1 or of the vehicle are applied topically to an eye of each of the animals. 2 minutes, 30 minutes and 6 hours after the topical application, the guinea pigs are anaesthetized and histamine (300 ng/10 μl) is administered to them subconjunctivally. Thirty minutes later the animals are sacrificed by inhalation of CO2 and the area of extravasation of the Evans blue is measured. The area of the blue dye is multiplied by the intensity of the colour, graded from 1 to 6, in order to produce a value of permeability for each animal (Yauni et al., Int. Arch. Allergy Immunol., 1993, 101, 102-106). The values obtained by the groups treated are then compared with those obtained with the group treated with the vehicle using Dunnett's "t" test (Dunnett C. W. "A multiple comparison procedure for comparing treatments with a control", J. Am Star. Assoc 1955, 50, 1096-1121)
This inhibition is observed in a range of concentrations from 0.1% to 0.0001% weight/volume.

CCOCCn1c(CN2CCN(CCCCn3cccn3)CC2)nc2ccccc21 [Example 1]
% change (degree of permeability) (0.00001 % (w/v), 30'): -6%
% change (degree of permeability) (0.00001 % (w/v), 6 h): -3%
% change (degree of permeability) (0.0001 % (w/v), 30'): -45%
% change (degree of permeability) (0.0001 % (w/v), 6 h): -36%
% change (degree of permeability) (0.001 % (w/v), 2'): -41%
% change (degree of permeability) (0.001 % (w/v), 30'): -66%
% change (degree of permeability) (0.001 % (w/v), 6 h): -66%
% change (degree of permeability) (0.01 % (w/v), 2'): -66%
% change (degree of permeability) (0.01 % (w/v), 30'): -85%
% change (degree of permeability) (0.01 % (w/v), 6 h): -91%
% change (degree of permeability) (0.1 % (w/v), 2'): -75%
% change (degree of permeability) (0.1 % (w/v), 30'): -100%
% change (degree of permeability) (0.1 % (w/v), 6 h): -100%
ED50 (concentration producing 50% inhibition of vascular permeability) (2'): 0.0024 % w/v
ED50 (concentration producing 50% inhibition of vascular permeability) (30'): 0.00035 % w/v
ED50 (concentration producing 50% inhibition of vascular permeability) (6 h): 0.00043 % w/v
ED50 (concentration which produces a 50% inhibition of the vascular permeability) (at 2 minutes): 0.0024 w/v
ED50 (concentration which produces a 50% inhibition of the vascular permeability) (at 30 minutes): 0.00035 w/v
ED50 (concentration which produces a 50% inhibition of the vascular permeability) (at 8 hours): 0.00043 w/v
antihistaminic activity and duration of action (in words) (ocular topical administration): powerful antihistaminic activity accompanied by an exceptionally long duration of action
inhibition of vascular permeability induced by histamine (in words) (ocular topical administration): inhibits, significantly and in a dose-dependent manner
